Consider 2 compounds from patent US7973034B2, “Amide, aryl sulfonamide, aryl urea, and α,β-diketone derived carboxylesterase inhibitors, and their methods of use” (priority 2003, dated 2011).

Where two headings read alike, the source gives them in different places.

One data set concerns carboxylesterases. Briefly: General carboxylesterase inhibition. It is filed as biochemical. Here is the method:
Carboxylesterase (CE) inhibition was determined by a spectroscopic assay using o-nitrophenyl acetate (o-NPA) as a substrate. Recombinant CEs produced from expression in Spodoptera frugiperda Sf9 insect cells via baculovirus were purified from serum-free culture media for the enzyme inhibition studies. Enzymes were incubated in 200 μl of 50 mM Hepes (pH 7.4) containing 3 mM o-NPA. Conversion of the o-NPA to nitrophenol was monitored by measuring the change in the absorbance at 420 nm. Absorbance readings were taken every 15 seconds for 2 minutes, and data transferred to a computer data spreadsheet. […] The final DMSO concentration was always 1% or less. […] The above procedure was then repeated using the same assay, with inhibitor concentrations ranging from 1 nM to 100 μM. Results were then transferred to Prism software (GraphPad Software, Inc., San Diego, Calif.) and Ki values determined using sigmoidal curve fits of the data. Routinely, all analyses were performed in duplicate, and Ki values determined using at least 8 inhibitor concentrations.

Data set [1] relates to chicken liver carboxylesterase. Particulars: cited from earlier work.
For data set [2] the following is noted: human plasma in vitro; cited from earlier work.
The conditions of data set [3]: rat plasma, within 1 hour of incubation; cited from earlier work.
For data set [4] the following is noted: mouse plasma, within 1 hour of incubation; cited from earlier work.

For the compound `O=C(C(=O)c1ccccc1)c1ccccc1` [Compound 2, Diphenylethane-1,2-dione], in the data set on carboxylesterases, the “found to be general carboxylesterase inhibitors” value is “general carboxylesterase inhibitors”. Moreover, the “inhibition of chicken liver carboxylesterase” value in data set [1] is listed as “inhibition”.

As to `CCc1c2c(nc3ccc(OC(=O)N4CCC(N5CCCCC5)CC4)cc13)-c1cc3c(c(=O)n1C2)COC(=O)[C@]3(O)CC` [CPT-11, 7-ethyl-10-[4-(1-piperidino)-1-piperidino]carbonyloxycamptothecin], the “level of activation of CPT-11 by plasma” value in data set [2] is “very low”. For the same compound, the “drug converted to SN-38” value in data set [3] and in data set [4] was “greater than 50%” in each case.
